Patent publication US8835462B2, “Macrocyclic picolinamides as fungicides” (Dow AgroSciences LLC, priority 2012, dated 2014)
Like-named read-outs stand apart in the source and are kept apart here.

What was measured:
Type in all cases: in vivo
[1] = system: Puccinia triticina; test: Wheat brown rust (PUCCRT) fungicidal activity on wheat seedlings
Procedure: Technical grades of materials were dissolved in acetone, which were then mixed with nine volumes of water containing 110 ppm Triton X-100. The fungicide solutions were applied onto wheat seedlings using an automated booth sprayer to run-off. All sprayed plants were allowed to air dry prior to further handling. Wheat plants (variety Yuma) were grown from seed in a greenhouse in 50% mineral soil/50% soil-less Metro mix until the first leaf was fully emerged, with 7-10 seedlings per pot. These plants were inoculated with an aqueous spore suspension of Septoria tritici either prior to or after fungicide treatments. After inoculation the plants were kept in 100% relative humidity (one day in a dark dew chamber followed by two to three days in a lighted dew chamber at 20° C.) to permit spores to germinate and infect the leaf. The plants were then transferred to a greenhouse set at 20° C. for disease to develop. When disease symptoms were fully expressed on the 1st leaves of untreated plants, infection levels were assessed on a scale of 0 to 100 percent disease severity. Percent disease control was calculated using the ratio of disease severity on treated plants relative to untreated plants. Evaluation of Fungicidal Activity: Wheat Brown Rust (Puccinia triticina; Synonym: Puccinia recondita f. sp. tritici; Bayer Code PUCCRT) Wheat plants (variety Yuma) were grown from seed in a greenhouse in 50% mineral soil/50% soil-less Metro mix until the first leaf was fully emerged, with 7-10 seedlings per pot. These plants were inoculated with an aqueous spore suspension of Puccinia triticina either prior to or after fungicide treatments. After inoculation the plants were kept in a dark dew room at 22° C. with 100% relative humidity overnight to permit spores to germinate and infect the leaf. The plants were then transferred to a greenhouse set at 24° C. for disease to develop. Fungicide formulation, application and disease assessment followed the procedures as described in the Example A.

[2] = system: Mycosphaerella graminicola; Anamorph: Septoria tritici; test: Leaf blotch of wheat (SEPTTR) fungicidal activity on wheat seedlings; conditions: Zymoseptoria tritici
Procedure: Evaluation of Fungicidal Activity: Leaf Blotch of Wheat (Mycosphaerella Graminicola; Anamorph: Septoria tritici; Bayer Code […]) Technical grades of materials were dissolved in acetone, which were then mixed with nine volumes of water containing 110 ppm Triton X-100. The fungicide solutions were applied onto wheat seedlings using an automated booth sprayer to run-off. All sprayed plants were allowed to air dry prior to further handling. Wheat plants (variety Yuma) were grown from seed in a greenhouse in 50% mineral soil/50% soil-less Metro mix until the first leaf was fully emerged, with 7-10 seedlings per pot. These plants were inoculated with an aqueous spore suspension of Septoria tritici either prior to or after fungicide treatments. After inoculation the plants were kept in 100% relative humidity (one day in a dark dew chamber followed by two to three days in a lighted dew chamber at 20° C.) to permit spores to germinate and infect the leaf. The plants were then transferred to a greenhouse set at 20° C. for disease to develop. When disease symptoms were fully expressed on the 1st leaves of untreated plants, infection levels were assessed on a scale of 0 to 100 percent disease severity. Percent disease control was calculated using the ratio of disease severity on treated plants relative to untreated plants.

[3] = system: Puccinia triticina; test: Fungicide mobility (dropline mobility test), wheat brown rust (PUCCRT); conditions: 1 ug/leaf, disease-free zone as percent of distance from marked line to leaf tip; for Dropline Mobility Test PUCCRT 1 DPM: 1 Day Protectant Mobility; for Dropline Mobility Test PUCCRT 3 DCM: 3 Day Curative Mobility
Procedure: Evaluation of Fungicide Mobility: Wheat Brown Rust (Puccinia Triticina; Synonym: Puccinia recondita f. sp. Tritici; Bayer Code PUCCRT):
“Yuma” wheat seedlings were used in the test. One mg of compound was dissolved in 9 μl of EC blank (emulsifiable concentrate) and 500 μl of acetone. Acetone was then evaporated overnight by leaving the vial open in a fume hood. Two milliliters of water containing 110 ppm Triton X-100 was added to each vial to prepare application solutions. A […] drop of formulated material was applied to a marked line on the adaxial surface 5 cm from the leaf tip of the primary leaves. The primary leaves were kept in a horizontal position. Each treatment had 6 replicates. Plants were inoculated with PUCCRT 1-day after (1DPM) or 3-day prior to (3DCM) compound applications. When rust was fully expressed on primary leaves on control plants, the zone of treated leaves that was disease-free in the acropetal direction was measured with a ruler and converted to percent of the distance from marked line to leaf tip.

[4] = 24 h, 1 Day Protectant, read-out: Disease Control PUCCRT 1 DP
[5] = 72 h, 3 Day Curative, read-out: Disease Control PUCCRT 3 DC
[6] = 24 h, 1 Day Protectant, read-out: Disease Control SEPTTR 1 DP
[7] = 72 h, 3 Day Curative, read-out: Disease Control SEPTTR 3 DC

SMILES | pest or weed control at 100 ppm [1, 4] | pest or weed control at 100 ppm [1, 5] | pest or weed control at 100 ppm [2, 6] | pest or weed control at 100 ppm [2, 7] | Dropline Mobility Test PUCCRT 1 DPM [3] | Dropline Mobility Test PUCCRT 3 DCM [3]
COC(=O)CCO[C@@H]1[C@@H](Cc2ccccc2)COC[C@H](NC(=O)c2nccc(OC)c2O)C(=O)O[C@H]1C [Compound 11] | 0 to 80% | 0 to 80% | 0 to 80% | 0 to 80% |  | 
COC(=O)CCO[C@@H]1[C@@H](Cc2ccccc2)COC[C@H](NC(=O)c2nccc(OC)c2OCOC(C)=O)C(=O)O[C@H]1C [Compound 12] | 80 to 100% | 0 to 80% | 0 to 80% | 0 to 80% |  | 
COc1ccnc(C(=O)N[C@H]2COC[C@H](Cc3ccccc3)[C@@H](OCCC(=O)N(C)C)[C@H](C)OC2=O)c1O [Compound 13] |  | 0 to 80% | 0 to 80% | 0 to 80% |  | 
COCCCO[C@@H]1[C@@H](Cc2ccccc2)COC[C@H](NC(=O)c2nccc(OC)c2O)C(=O)O[C@H]1C [Compound 14] | 80 to 100% | 80 to 100% | 80 to 100% | 0 to 80% |  | 
COc1ccnc(C(=O)N[C@H]2COC[C@H](Cc3ccccc3)[C@@H](OCCCC(F)(F)F)[C@H](C)OC2=O)c1O [Compound 18] | 80 to 100% | 80 to 100% | 80 to 100% | 80 to 100% | B (More than 0-Less than 80) | B (More than 0-Less than 80)
COc1ccnc(C(=O)N[C@H]2COC[C@H](Cc3ccccc3)[C@@H](OC/C=C/C(F)(F)F)[C@H](C)OC2=O)c1O [Compound 20] | 0 to 80% | 0 to 80% | 0 to 80% | 0 to 80% | B (More than 0-Less than 80) | 
CCCC(C)O[C@@H]1[C@@H](Cc2ccccc2)COC[C@H](NC(=O)c2nccc(OC)c2OCOC(C)=O)C(=O)O[C@H]1C (stereo partly shown) [Compound 24] | 80 to 100% | 80 to 100% | 80 to 100% | 80 to 100% | B (More than 0-Less than 80) | B (More than 0-Less than 80)
COc1ccnc(C(=O)N[C@H]2COC[C@H](Cc3ccccc3)[C@@H](OC/C=C/C(F)(F)F)[C@H](C)OC2=O)c1OCOC(C)=O [Compound 25] | 80 to 100% | 80 to 100% | 80 to 100% | 80 to 100% | B (More than 0-Less than 80) | 
COC(=O)/C=C/O[C@@H]1[C@@H](Cc2ccccc2)COC[C@H](NC(=O)c2nccc(OC)c2O)C(=O)O[C@H]1C [Compound 27] | 80 to 100% | 0 to 80% | 0 to 80% | 0 to 80% | B (More than 0-Less than 80) | B (More than 0-Less than 80)
COc1ccnc(C(=O)N[C@H]2COC[C@H](Cc3ccccc3)[C@@H](OCCCc3ccccc3)[C@H](C)OC2=O)c1O [Compound 28] | 80 to 100% | 80 to 100% | 0 to 80% | 0 to 80% | B (More than 0-Less than 80) | 
COc1ccnc(C(=O)N[C@H]2COC[C@H](Cc3ccccc3)[C@@H](OC3CCCCC3)[C@H](C)OC2=O)c1O [Compound 29] | 80 to 100% | 80 to 100% | 0 to 80% | 80 to 100% | B (More than 0-Less than 80) | B (More than 0-Less than 80)
COc1ccnc(C(=O)N[C@H]2COC[C@H](Cc3ccccc3)[C@@H](OC(=O)c3ccccc3)[C@H](C)OC2=O)c1O [Compound 30] | 80 to 100% | 0 to 80% | 0 to 80% | 0 to 80% | B (More than 0-Less than 80) | 
COc1ccnc(C(=O)N[C@H]2COC[C@H](Cc3ccccc3)[C@@H](OC(=O)C3CC3)[C@H](C)OC2=O)c1O [Compound 31] | 80 to 100% | 80 to 100% | 80 to 100% | 80 to 100% | B (More than 0-Less than 80) | B (More than 0-Less than 80)
COc1ccnc(C(=O)N[C@H]2COC[C@H](Cc3ccccc3)[C@@H](Oc3ccccc3)[C@H](C)OC2=O)c1O [Compound 33] | 80 to 100% | 80 to 100% | 80 to 100% | 80 to 100% | B (More than 0-Less than 80) | 
COc1ccnc(C(=O)N[C@H]2COC[C@H](Cc3ccccc3)[C@@H](OC3CCCCC3)[C@H](C)OC2=O)c1OCOC(C)=O [Compound 35] | 80 to 100% | 80 to 100% | 80 to 100% | 80 to 100% | B (More than 0-Less than 80) | 
COc1ccnc(C(=O)N[C@H]2COC[C@H](Cc3ccccc3)[C@@H](OCCC(C)C)[C@H](C)OC2=O)c1O [Compound 41] | 80 to 100% | 0 to 80% | 0 to 80% | 0 to 80% | B (More than 0-Less than 80) | B (More than 0-Less than 80)
COc1ccnc(C(=O)N[C@H]2COC[C@H](Cc3ccccc3)[C@@H](OCCC(C)C)[C@H](C)OC2=O)c1OCOC(C)=O [Compound 42] | 80 to 100% | 80 to 100% | 80 to 100% | 80 to 100% | B (More than 0-Less than 80) | B (More than 0-Less than 80)
COc1ccnc(C(=O)N[C@H]2COC[C@H](Cc3ccccc3)[C@@H](OCC(F)F)[C@H](C)OC2=O)c1O [Compound 43] | 80 to 100% | 80 to 100% | 80 to 100% | 80 to 100% | A (80-100) | B (More than 0-Less than 80)
COc1ccnc(C(=O)N[C@H]2COC[C@H](Cc3ccccc3)[C@@H](OCCC(C)OC)[C@H](C)OC2=O)c1O (stereo partly shown) [Compound 45] | 80 to 100% | 80 to 100% | 80 to 100% | 80 to 100% | A (80-100) | A (80-100)
COc1ccnc(C(=O)N[C@H]2COC[C@H](Cc3ccccc3)[C@@H](OC3CCCC3)[C@H](C)OC2=O)c1O [Compound 105] | 80 to 100% | 80 to 100% | 80 to 100% | 80 to 100% |  | 
